Assay [1] has as its system electroactive microorganisms of the biosensor anode.
Assay [2] deals with electroactive microorganisms.

The source of these data is patent publication US12704493B2 (priority 2020, dated 2026).

Take `C=O` [formaldehyde]: the “decrease in the estimated open circuit voltage” value in assay [1] was about 90%.

`O=S(=O)([O-])[O-].[Cu+2]` [Cu, CuSO4]: in assay [2], the “change of open circuit voltage with each spike” value is “reduced”.
